pEC50: −log10 of the molar value.
Biological target: T1, Kv7.2 (Homo sapiens, UniProt O43526)
T1 construct: expressed in transfected cells
Test: Activation of Kv7.2 (in vitro assay, concentration response curve)
Type: cell-based
Settings: for Emax: Kv7.2 activation max %; for pEC50: activation of Kv7.2
Summary of the method: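 EC50 is the half-maximal effective concentration, relative to the Emax observed for each compound in this in vitro assay. It was derived from concentration–response curves of the agonistic effect measured over a series of concentrations.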

Row | SMILES | Emax | pEC50
1 | O=C(NCc1ccnc(OC(F)F)c1)NC1CCCC1 [Example 20, 1-cyclopentyl-3-[[2-(difluoromethoxy)pyridin-4-yl]methyl]urea] | 57% | 6.41
2 | CC(C)(F)CNC(=O)NCc1ccnc(OC(F)F)c1 [Example 39, 1-[[2-(difluoromethoxy)pyridin-4-yl]methyl]-3-(2-fluoro-2-methylpropyl)urea] | 55% | 5.71
3 | O=C(NCc1ccnc(OC(F)F)c1)N[C@H]1CC[C@](O)(C(F)(F)F)C1 (racemic) [Example 187, 1-[[2-(difluoromethoxy)pyridin-4-yl]methyl]-3-[rac-(1R,3S)-3-hydroxy-3-(trifluoromethyl)cyclopentyl]urea] | 40% | 5.94
4 | O=C(NCc1ccnc(OC(F)F)c1)N[C@H]1[C@@H]2CC(F)(F)C[C@@H]21 [Example 271, 1-[[2-(difluoromethoxy)pyridin-4-yl]methyl]-3-[rac-(1R,5S,6R)-3,3-difluoro-6-bicyclo[3.1.0]hexanyl]urea] | 42% | 6.47
5 | O=C(NCc1ccnc(OCC(F)CF)c1)NC12CCC(F)(CC1)CC2 (centres unmarked) [Example 213, 1-[[2-(2,3-difluoropropoxy)pyridin-4-yl]methyl]-3-(4-fluoro-1-bicyclo[2.2.2]octanyl)urea] | 47% | 6.47
6 | CC(F)COc1cc(CNC(=O)NC23CCC(F)(CC2)CC3)ccn1 (centres unmarked) [Example 88, 1-(4-fluoro-1-bicyclo[2.2.2]octanyl)-3-[[2-(2-fluoropropoxy)pyridin-4-yl]methyl]urea] | 43% | 6.36
7 | CC(C)(C)C(O)CNC(=O)NCc1ccnc(OC(F)F)c1 (centres unmarked) [Example 95, 1-[[2-(difluoromethoxy)pyridin-4-yl]methyl]-3-(2-hydroxy-3,3-dimethylbutyl)urea] | 43% | 5.94
8 | O=C(NCc1ccnc(OC(F)F)c1)N[C@@H]1CC[C@@H](C(F)(F)F)C1 (single isomer, unassigned) [Example 206] | 75% | 6.31
9 | O=C(NCc1ccnc(OC(F)F)c1)NC1CCC(F)(F)C1 (centres unmarked) [Example 93, 1-(3,3-difluorocyclopentyl)-3-[[2-(difluoromethoxy)pyridin-4-yl]methyl]urea] | 56% | 6.35
10 | O=C(NCc1ccnc(-n2cccn2)c1)N[C@@H]1C[C@H]2CC[C@@H]1C2 [Example 16, 1-[(1R,2R,4S)-2-bicyclo[2.2.1]heptanyl]-3-[(2-pyrazol-1-ylpyridin-4-yl)methyl]urea] | 73% | 6.41
11 | O=C(NCc1ccnc(CC(F)(F)F)c1)N[C@H]1CCC[C@@H](C(F)(F)F)C1 (racemic) [Example 276, 1-[rac-(1R,3S)-3-(trifluoromethyl)cyclohexyl]-3-[[2-(2,2,2-trifluoroethyl)pyridin-4-yl]methyl]urea] | 62% | 6.27
12 | C[C@@H](F)COc1cc(CNC(=O)N[C@H]2C[C@H](C(F)(F)F)C2)ccn1 [Example 199, 1-[[2-[(2R)-2-fluoropropoxy]pyridin-4-yl]methyl]-3-[(1r,3r)-3-(trifluoromethyl)cyclobutyl]urea] | 52% | 6.54
13 | O=C(NCc1ccnc(OC(F)F)c1)NC12CCC(C(F)(F)F)(CC1)CC2 [Example 68, 1-[[2-(difluoromethoxy)pyridin-4-yl]methyl]-3-[4-(trifluoromethyl)-1-bicyclo[2.2.2]octanyl]urea] | 66% | 5.59
14 | O=C(NCc1ccnc(OC(F)F)c1)NCC1CC(F)(F)C1 [Example 181, 1-[(3,3-difluorocyclobutyl)methyl]-3-[[2-(difluoromethoxy)pyridin-4-yl]methyl]urea] | 41% | 6.18
15 | O=C(NCc1ccnc(OC(F)F)c1)Nc1ccc(F)c(F)c1 [Example 186, 1-[[2-(difluoromethoxy)pyridin-4-yl]methyl]-3-(3,4-difluorophenyl)urea] | 62% | 6.26
16 | CC(NC(=O)NCc1ccnc(OC(F)F)c1)C1CCC1 (centres unmarked) [Example 17, 1-(1-cyclobutylethyl)-3-[[2-(difluoromethoxy)pyridin-4-yl]methyl]urea] | 51% | 6.29
17 | O=C(NC(CO)c1ccnc(OCC(F)(F)F)c1)N[C@H]1C[C@H](C(F)(F)F)C1 (some centres unmarked) [Example 185, 1-[2-hydroxy-1-[2-(2,2,2-trifluoroethoxy)pyridin-4-yl]ethyl]-3-[(1r,3r)-3-(trifluoromethyl)cyclobutyl]urea] | 84% | 6.42
18 | CC(Oc1cc(CNC(=O)NC23CC(F)(C2)C3)ccn1)C(F)(F)F (centres unmarked) [Example 223, 1-(3-fluoro-1-bicyclo[1.1.1]pentanyl)-3-[[2-(1,1,1-trifluoropropan-2-yloxy)pyridin-4-yl]methyl]urea] | 66% | 6.68
19 | C[C@H](F)COc1cc(CNC(=O)NC23CCC(F)(CC2)CC3)ccn1 [Example 156, 1-(4-fluoro-1-bicyclo[2.2.2]octanyl)-3-[[2-[(2S)-2-fluoropropoxy]pyridin-4-yl]methyl]urea] | 50% | 6.25
20 | CC1(C)CCC(NC(=O)NCc2ccnc(OC3COC3)c2)CC1 [Example 18, 1-(4,4-dimethylcyclohexyl)-3-[[2-(oxetan-3-yloxy)pyridin-4-yl]methyl]urea] | 71% | 6.57
21 | CCC1CC(NC(=O)NCc2ccnc(OC(F)F)c2)C1 (centres unmarked) [Example 60, 1-[[2-(difluoromethoxy)pyridin-4-yl]methyl]-3-(3-ethylcyclobutyl)urea] | 77% | 6.85
22 | O=C(NCc1ccnc(OC(F)F)c1)NCC1CCCC1 [Example 46, 1-(cyclopentylmethyl)-3-[[2-(difluoromethoxy)pyridin-4-yl]methyl]urea] | 64% | 6.68
23 | O=C(NCc1ccnc(OC(F)F)c1)NCC(O)C12CC(F)(C1)C2 (centres unmarked) [Example 289, 1-[[2-(difluoromethoxy)pyridin-4-yl]methyl]-3-[2-(3-fluoro-1-bicyclo[1.1.1]pentanyl)-2-hydroxyethyl]urea] | 40% | 6.01
24 | O=C(NCc1ccnc(OC(F)F)c1F)N[C@H]1C[C@H](C(F)(F)F)C1 [Example 219, 1-[[2-(difluoromethoxy)-3-fluoropyridin-4-yl]methyl]-3-[(1r,3r)-3-(trifluoromethyl)cyclobutyl]urea] | 48% | 6.42
25 | O=C(NC(CCO)c1ccnc(OC(F)F)c1)N[C@H]1C[C@H](C(F)(F)F)C1 (some centres unmarked) [Example 117, 1-[1-[2-(difluoromethoxy)pyridin-4-yl]-3-hydroxypropyl]-3-[(1r,3r)-3-(trifluoromethyl)cyclobutyl]urea] | 94% | 5.72
26 | O=C(NCc1ccnc(OC(F)F)c1)NC(C1CC1)C1CC1 [Example 253, 1-(dicyclo-propylmethyl)-3-[[2-(difluoromethoxy)pyridin-4-yl]methyl]urea] | 70% | 6.49
27 | O=C(NCc1ccnc(OC(F)F)c1)NC12CCC(CC1)CC2 [Example 131, 1-(1-bicyclo[2.2.2]octanyl)-3-[[2-(difluoromethoxy)pyridin-4-yl]methyl]urea] | 61% | 6.77
28 | CC(F)(F)c1cc(CNC(=O)N[C@H]2C[C@@H]3CC[C@H]2C3)ccn1 (racemic) [Example 33, 1-[[2-(1,1-difluoroethyl)pyridin-4-yl]methyl]-3-[rac-(1R,2R,4S)-2-bicyclo[2.2.1]heptanyl]urea] | 80% | 6.59
